Measurements published in US20170088546A1 (priority 2014, published 2017).
Like-named read-outs stand apart in the source and are kept apart here.

Legend:
[1] = molecular target: Smurf-2 (Homo sapiens, UniProt Q9HAU4); test: HECT E3 ligase autoubiquitinylation TR-FRET assay, Smurf-2; type: biochemical
Description: (§1) To determine the HECT E3 ligase selectivity of the compounds, a panel of biochemical HECT E3 ligase autoubiquitinylation assays was employed (Smurf-1, Smurf-2, WWP1, WWP2, ITCH, Nedd4, Nedd4L and E6AP). The conjugation of ubiquitin to a protein substrate is a multistep process. In an initial ATP-requiring step, a thioester bond is formed between the carboxyl terminus of ubiquitin and an internal cystein residue of the ubiquitin-activating enzyme (E1). Activated ubiquitin is then transferred to a specific cystein residue of an ubiquitin-conjugating enzyme (E2). E2s donate ubiquitin to a HECT E3 ligase (E3) from which it is transferred to the substrate protein. HECT E3 ligases can auto-ubiquitinylate. This event is detected in the TR-FRET (Time-Resolved Fluorescence Resonance Energy Transfer) assay used in this panel. The reaction mix contains E1, E2, tagged-E3, biotin-conjugated ubiquitin, the compound and ATP in a suitable buffer and is incubated for 45 minutes to allow auto-ubiquitinylation of the E3 ligase. To measure the extent of ubiquitinylated E3 ligase by TR-FRET, the donor fluorophore Europium cryptate (Eu3+ cryptate), conjugated to streptavidin which subsequently binds to biotinylated ubiquitin, and the modified allophycocyanin XL665 (HTRF® primary acceptor fluorophore) coupled to a tag-specific antibody (HA, His or GST), which recognizes the respective E3 ligase fusion proteins, are added after the reaction is complete. When these two fluorophores are brought together by a biomolecular interaction (in this case ubiquitinylation of the E3 ligase), a portion of the energy captured by the Cryptate during excitation is released through fluorescence emission at 620 nm, while the remaining energy is transferred to XL665. This energy is then released by XL665 as specific fluorescence at 665 nm. Light at 665 nm is emitted only through FRET with Europium.
(§2) Test and reference compounds are prepared at 180×[final] in 90% DMSO, and diluted 1:3 in 90% DMSO.
(§3) For the biochemical assay panel, 50 nl of the test compounds, reference compounds and buffer/DMSO control are transferred to the respective wells of a 384-well white GREINER “SMALL VOLUME” PS plate. The assay panel is run at room temperature on a Biomek FX liquid handling workstation. To the assay plates containing 50 nl compound or control solutions in 90% DMSO, 4.5 ul of E3 ligase solution were added per well, followed by 4.5 ul of the pre-incubated E1/E2/Ub mix or the pre-diluted ubiquitin (LOW control). Plates are shaken vigorously after each addition. In this assay the compound concentrations range from 3 nM to 10 uM in an 8-point dose-response curve.
(§4) After an incubation time of 45 min in the dark, the plates are transferred into the Pherastar fluorescence reader to measure the TR-FRET signal.

[2] = molecular target: Smurf-1 (Homo sapiens, UniProt Q9HCE7); test: biochemical; type: biochemical
Smurf-1, sequence (Q9HCE7 whole entry): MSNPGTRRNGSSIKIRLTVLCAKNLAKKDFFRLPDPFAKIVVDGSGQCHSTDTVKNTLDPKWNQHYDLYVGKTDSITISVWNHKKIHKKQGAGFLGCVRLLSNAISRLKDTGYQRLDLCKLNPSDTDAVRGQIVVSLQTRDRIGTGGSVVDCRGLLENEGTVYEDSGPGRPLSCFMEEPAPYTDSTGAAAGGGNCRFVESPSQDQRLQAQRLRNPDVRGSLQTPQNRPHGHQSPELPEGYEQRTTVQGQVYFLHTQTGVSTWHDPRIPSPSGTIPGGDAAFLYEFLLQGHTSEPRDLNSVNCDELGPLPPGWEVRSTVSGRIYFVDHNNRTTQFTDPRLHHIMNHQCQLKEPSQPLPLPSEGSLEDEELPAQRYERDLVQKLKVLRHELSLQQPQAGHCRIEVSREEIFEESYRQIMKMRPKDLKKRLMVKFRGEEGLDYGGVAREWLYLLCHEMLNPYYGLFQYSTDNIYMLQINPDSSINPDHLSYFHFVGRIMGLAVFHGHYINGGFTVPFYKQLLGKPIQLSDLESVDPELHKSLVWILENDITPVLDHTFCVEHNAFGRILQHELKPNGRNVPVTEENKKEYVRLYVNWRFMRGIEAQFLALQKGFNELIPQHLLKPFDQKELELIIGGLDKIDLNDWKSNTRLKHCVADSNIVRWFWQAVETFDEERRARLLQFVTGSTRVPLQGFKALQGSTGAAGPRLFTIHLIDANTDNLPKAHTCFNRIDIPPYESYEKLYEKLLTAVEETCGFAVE
Description: as §1, §2, §3, §4

[3] = biochemical autoubiquitinylation TR-FRET, 45 min incubation, 8-point dose-response 3 nM to 10 uM
[4] = biochemical autoubiquitinylation TR-FRET, 45 min incubation, 8-point dose-response 3 nM to 10 uM, read-out: Smurf-2/IC50

Smurf-2, sequence (Q9HAU4 whole entry, species assumed): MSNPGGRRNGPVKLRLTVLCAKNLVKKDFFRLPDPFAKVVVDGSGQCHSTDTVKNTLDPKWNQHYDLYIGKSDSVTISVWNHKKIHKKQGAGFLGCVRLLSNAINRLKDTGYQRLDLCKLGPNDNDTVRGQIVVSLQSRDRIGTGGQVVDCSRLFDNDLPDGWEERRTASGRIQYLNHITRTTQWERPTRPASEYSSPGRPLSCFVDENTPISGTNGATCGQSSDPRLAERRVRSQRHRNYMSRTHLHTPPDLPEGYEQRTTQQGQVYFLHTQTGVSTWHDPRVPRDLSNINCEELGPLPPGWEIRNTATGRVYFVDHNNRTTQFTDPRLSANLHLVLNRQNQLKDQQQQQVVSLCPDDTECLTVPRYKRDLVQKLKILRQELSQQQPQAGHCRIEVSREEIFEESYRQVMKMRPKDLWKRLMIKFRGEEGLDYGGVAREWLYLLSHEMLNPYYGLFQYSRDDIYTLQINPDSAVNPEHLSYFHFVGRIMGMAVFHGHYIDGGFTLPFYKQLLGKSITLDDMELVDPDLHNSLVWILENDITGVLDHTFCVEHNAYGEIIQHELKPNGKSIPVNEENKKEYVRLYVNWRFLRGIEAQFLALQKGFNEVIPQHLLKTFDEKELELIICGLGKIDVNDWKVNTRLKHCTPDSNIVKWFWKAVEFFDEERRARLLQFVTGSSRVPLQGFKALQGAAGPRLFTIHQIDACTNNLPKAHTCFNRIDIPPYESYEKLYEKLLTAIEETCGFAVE

Row | IC50 [2] | SMILES | IC50 [1] | IC50 [2, 3] | IC50 [1, 4]
1 |  | COc1ccc2c(c1)CCCc1c(C(=O)Nc3c(C(F)(F)F)n(C)n(-c4ccccc4)c3=O)noc1-2 [Example 38, 8-methoxy-N-(1-methyl-3-oxo-2-phenyl-5-(trifluoromethyl)-2,3-dihydro-1H-pyrazol-4-yl)-5,6-dihydro-4H-benzo[3,4]cyclohepta[1,2-d]isoxazole-3-carboxamide] | > 10000 nM | 865 nM | 
2 |  | Cc1c(NC(=O)c2noc3c2CCCc2cc(OC(F)(F)F)ccc2-3)c(=O)n(-c2ccccc2)n1C [Example 39, N-(1,5-dimethyl-3-oxo-2-phenyl-2,3-dihydro-1H-pyrazol-4-yl)-8-(trifluoromethoxy)-5,6-dihydro-4H-benzo[3,4]cyclohepta[1,2-d]isoxazole-3-carboxamide] |  | 200 nM | 5550 nM
3 |  | Cc1c(NC(=O)c2noc3c2CCCc2cc(OC(F)(F)F)ccc2-3)c(=O)n(-c2c(Cl)cccc2Cl)n1C [Example 41, N-(2-(2,6-dichlorophenyl)-1,5-dimethyl-3-oxo-2,3-dihydro-1H-pyrazol-4-yl)-8-(trifluoromethoxy)-5,6-dihydro-4H-benzo[3,4]cyclohepta[1,2-d]isoxazole-3-carboxamide] |  | 4.5 nM | 390 nM
4 |  | Cc1c(NC(=O)c2noc3c2CCCc2cc(OC(F)(F)F)ccc2-3)c(=O)n(C2CCCCC2)n1C [Example 45, N-(2-cyclohexyl-1,5-dimethyl-3-oxo-2,3-dihydro-1H-pyrazol-4-yl)-8-(trifluoromethoxy)-5,6-dihydro-4H-benzo[3,4]cyclohepta[1,2-d]isoxazole-3-carboxamide] |  | 2.2 nM | 175 nM
5 |  | Cc1c(NC(=O)c2noc3c2CCSc2cc(OC(F)(F)F)ccc2-3)c(=O)n(-c2ccccc2F)n1C [Example 46, N-(2-(2-fluorophenyl)-1,5-dimethyl-3-oxo-2,3-dihydro-1H-pyrazol-4-yl)-8-(trifluoromethoxy)-4,5-dihydrobenzo[6,7]thiepino[4,5-d]isoxazole-3-carboxamide] | > 10000 nM | 31.5 nM | 
6 |  | Cc1c(NC(=O)c2noc3c2CCSc2ccccc2-3)c(=O)n(-c2ccccc2)n1C [Example 47, N-(1,5-dimethyl-3-oxo-2-phenyl-2,3-dihydro-1H-pyrazol-4-yl)-4,5-dihydrobenzo[6,7]thiepino[4,5-d]isoxazole-3-carboxamide] | > 10000 nM | 1130 nM | 
7 |  | Cc1c(NC(=O)c2noc3c2CC2C(c4ccccc4-3)C2(Cl)Cl)c(=O)n(-c2ccccc2)n1C (stereo not shown) [Example 50, 9,9-dichloro-N-(1,5-dimethyl-3-oxo-2-phenyl-2,3-dihydro-1H-pyrazol-4-yl)-8,8a,9,9a-tetrahydrobenzo[3,4]cyclopropa[5,6]cyclohepta[1,2-d]isoxazole-7-carboxamide] | > 10000 nM | 462 nM | 
8 |  | Cc1c(NC(=O)c2noc3c2CCCCc2ccccc2-3)c(=O)n(-c2ccccc2)n1C [Example 51, N-(1,5-dimethyl-3-oxo-2-phenyl-2,3-dihydro-1H-pyrazol-4-yl)-4,5,6,7-tetrahydrobenzo[3,4]cycloocta[1,2-d]isoxazole-3-carboxamide] | > 10000 nM | 658 nM | 
9 |  | COc1ccc2c(c1)CCCCc1c(C(=O)Nc3c(C)n(C)n(-c4ccccc4F)c3=O)noc1-2 [Example 53, N-(2-(2-fluorophenyl)-1,5-dimethyl-3-oxo-2,3-dihydro-1H-pyrazol-4-yl)-9-methoxy-4,5,6,7-tetrahydrobenzo[3,4]cycloocta[1,2-d]isoxazole-3-carboxamide] | > 10000 nM | 132 nM | 
10 | 192 nM | COc1ccc2c(c1)OCCCc1c(C(=O)Nc3c(C)n(C)n(C4CCCCC4)c3=O)noc1-2 [Example 54, N-(2-cyclohexyl-1,5-dimethyl-3-oxo-2,3-dihydro-1H-pyrazol-4-yl)-9-methoxy-5,6-dihydro-4H-benzo[2,3]oxocino[5,4-d]isoxazole-3-carboxamide] | > 10000 nM |  | 
11 |  | COc1ccc(Cn2c(=O)c(NC(=O)c3noc4c3CCCc3cc(OC)ccc3-4)c(C)n2C)cc1 [Example 55, 8-methoxy-N-(2-(4-methoxybenzyl)-1,5-dimethyl-3-oxo-2,3-dihydro-1H-pyrazol-4-yl)-5,6-dihydro-4H-benzo[3,4]cyclohepta[1,2-d]isoxazole-3-carboxamide] | > 10000 nM | 9900 nM | 
